Assay results: patent publication US6288122A, “Gardos channel antagonists” (Icagen, Inc., priority 1999, dated 2001)
Where “and” joins values, the source holds several entries; their conditions need not be identical. Equal entries are not always repeated. Entries after “also recorded” stand apart in the source; their conditions may differ. Where two headings read alike, the source gives them in different places.

How the values were obtained:
[1] = molecular target: T1, IKs (Cavia porcellus, UniProt O70344); test: Whole cell patch clamp recordings of IKs current in guinea pig myocytes; format: cell-based; settings: estimated IC50, read-out: Est. IC50 Potency vs. IKs
T1 construct: Recordings of IKs current were made using the whole cell patch clamp methodology on guinea pig myocytes; endogenous in cells; host or cells: guinea pig myocytes (method of Turgeon et al., Circ. Res. 75: 879-86, 1994)

[2] = in vitro; settings: human, microsomes, pH 7.4
[3] = Pharmacokinetic study in the rat (i.v. and p.o.); format: in vivo, male, Sprague-Dawley rats
Experimental: Pharmacokinctic studies were conducted in rats to extend the finding that selected fluoro substitution of the phenyl rings increased metabolic stability in vitro to an in vivo study. […] Blood samples were collected at 9 time points from predosing to 24 hours after dosing p.o. and at 11 time points from pre-dosing to 24 hours after i.v. dosing. Samples were prepared and analyzed for compound plasma concentration using LC-MS/MS.

[4] = molecular target: T2, Gardos channel (Homo sapiens, UniProt O15554); test: Inhibition of the Gardos channel in red blood cells (86Rb flux); format: cell-based; settings: for improvement in potency (Gardos) over non-fluorinated triphenylacetamide 20: vs. compound 20
T2 construct: endogenous in cells; host or cells: red blood cells from heparinized whole blood
Excerpt: The activity of the compounds of the invention towards ion channels, such as the Gardos channel can be assayed utilizing methods known in the art. […] Utilizing the methods described in this reference, both the percent inhibition of the Gardos channel and the IC50 of the compounds of the invention can be assayed.
In an exemplary assay, the inhibition by test compounds of an erythrocyte Gardos channel can be assayed using human red blood cells. The degree of inhibition can be measured using a detectable material such as ^86 Rb. In an exemplary assay, utilizing ^86 Rb, Gardos channel inhibition can be assayed by exposing red blood cells to ^86 Rb and a test compound and measuring the amount of ^86 Rb taken up by the cells. Numerous variations on this assay will be apparent to those of skill in the art.
Briefly, erythrocytes are exposed to a test compound and a ^86 Rb-containing medium. The initial rate of ^86 Rb transport can be calculated from a parameter such as the linear least square slope of ^86 Rb uptake by the cell(s). Inhibitory constants can be calculated by standard methods using computer-assisted nonlinear curve fitting.
Heparinized whole blood was washed three times with Modified Flux Buffer (MFB: 140 mM NaCl; 5 mM KCl; 10 mM Tris; 0.1 mM EGTA; pH=7.4). Washed cells were then incubated for 3 hours with ^86 Rb (5 μCi/mL). After this incubation period, the RBCs were washed three times with cold MFB. Washed ^86 Rb loaded RBCs were then incubated with a test compound of the invention for 10 minutes. ^86 Rb flux was then initiated by the addition of 20 μL/mL of a MFB solution containing 10 mM CaCl2 and 100 μM A23187, a calcium ionophore. This yielded a final concentration of 200 μM CaCl2 and 2 μM A23187 n the incubation medium. Cells were incubated for 10 minutes, spun down and the supernatant was removed. Samples were counted in a Wallace Microbeta liquid scintillation counter by Cerenkov emission. Total RBC ^86 Rb content was determined by lysing the RBCs with water and then precipitating protein using a 50:50 mixture of ethanol:chloroform. After a 20 minute microfuge spin, the aqueous and organic layers separated and the aqueous layer was removed and counted. Efflux is expressed as a percentage of the initial cell content of ^86 Rb.

[5] = test system: IKs vs. Gardos; test: Selectivity for the Gardos channel relative to IKs (ratio of IC50s)
[6] = test system: IKs; settings: myocytes; cited from earlier work
[7] = test system: sickled cells; settings: combined with a compound which stabilizes the oxyconformation of Hb S; cited from earlier work
[8] = test system: Gardos channel; settings: oral therapy; cited from earlier work
[9] = test system: Gardos channel of normal and sickle erythrocytes; settings: cited from earlier work; for inhibition of Gardos channel / Ca2+-activated K+ flux: in vitro
[10] = test system: red cell Gardos channel; settings: oral administration; cited from earlier work
[11] = erythrocytes, 86Rb, read-out: IC50 Potency vs. Gardos

T2 sequence (O15554 whole entry): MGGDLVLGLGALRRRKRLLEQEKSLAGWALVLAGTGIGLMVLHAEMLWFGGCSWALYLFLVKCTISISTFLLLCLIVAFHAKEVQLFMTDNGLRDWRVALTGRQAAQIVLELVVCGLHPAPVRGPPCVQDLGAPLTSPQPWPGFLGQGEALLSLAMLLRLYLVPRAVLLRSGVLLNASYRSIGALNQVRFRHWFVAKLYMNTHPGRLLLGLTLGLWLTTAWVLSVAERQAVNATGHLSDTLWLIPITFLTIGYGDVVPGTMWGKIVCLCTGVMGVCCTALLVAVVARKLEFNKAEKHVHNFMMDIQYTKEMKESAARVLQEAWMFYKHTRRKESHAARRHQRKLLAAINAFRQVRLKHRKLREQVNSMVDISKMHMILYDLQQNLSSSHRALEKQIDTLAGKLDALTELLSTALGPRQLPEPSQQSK
T1 sequence (Q60409 whole entry): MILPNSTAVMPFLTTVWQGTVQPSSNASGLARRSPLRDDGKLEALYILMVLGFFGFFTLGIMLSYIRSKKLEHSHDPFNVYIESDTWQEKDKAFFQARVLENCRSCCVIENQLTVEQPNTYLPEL
T1 sequence (O70344 whole entry): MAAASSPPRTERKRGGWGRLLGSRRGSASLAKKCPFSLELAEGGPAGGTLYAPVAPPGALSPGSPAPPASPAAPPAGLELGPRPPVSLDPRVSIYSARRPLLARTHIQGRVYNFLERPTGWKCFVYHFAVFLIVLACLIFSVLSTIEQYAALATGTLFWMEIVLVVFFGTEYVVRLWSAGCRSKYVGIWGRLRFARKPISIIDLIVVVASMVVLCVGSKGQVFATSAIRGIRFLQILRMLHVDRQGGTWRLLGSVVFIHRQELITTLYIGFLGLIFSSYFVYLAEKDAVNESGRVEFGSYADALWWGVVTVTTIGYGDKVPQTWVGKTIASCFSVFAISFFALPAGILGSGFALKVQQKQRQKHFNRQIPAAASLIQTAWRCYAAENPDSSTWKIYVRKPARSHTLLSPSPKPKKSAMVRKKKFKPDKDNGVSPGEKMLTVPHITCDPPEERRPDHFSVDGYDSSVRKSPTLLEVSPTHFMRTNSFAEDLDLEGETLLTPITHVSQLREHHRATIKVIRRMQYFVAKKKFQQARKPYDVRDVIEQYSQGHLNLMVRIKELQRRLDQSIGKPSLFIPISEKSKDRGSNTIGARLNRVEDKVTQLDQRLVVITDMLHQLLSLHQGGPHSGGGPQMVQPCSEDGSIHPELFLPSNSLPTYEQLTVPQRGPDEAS

IC50 [1] | remaining at 2 h, 5 µM [2] | IC50 [4, 11] | Structure (SMILES) | other results
2000 nM | 64% | – | NC(=O)C(c1ccccc1)(c1ccc(F)cc1)c1ccccc1F (stereo not shown) [Compound 1, (2-fluorophenyl)-(4-fluorophenyl)phenylacetamide] | oral bioavailability ([3]; 10 mg/kg p.o., 1 mg/kg i.v., rat): 35%
1500 nM | 76% | – | NC(=O)C(c1ccccc1)(c1ccc(F)cc1)c1ccc(F)cc1 [Compound 3, bis(4-fluorophenyl)phenylacetamide] | metabolised at 2 h, 5 µM [2]: 24%; bioavailability ([3]; plasma, po, 10 mg/kg p.o., 1 mg/kg i.v., rat): 100%
1400 nM | 71% | – | NC(=O)C(c1ccc(F)cc1)(c1ccc(F)cc1)c1ccccc1F [Compound 5, bis(4-fluorophenyl)-2-fluorophenylacetamide] | metabolised at 2 h, 5 µM [2]: 29%; fold more selective for the Gardos channel versus IKs than clotrimazole ([5]; vs. clotrimazole): ~18 fold and ~17 fold; fold more selective for the Gardos channel than the unsubstituted triphenylacetamide parent 20 ([5]; vs. compound 20): approximately 6 fold; fold more potent than clotrimazole towards the Gardos channel [4]: ~10 fold
3200 nM | 3% | 30 nM | NC(=O)C(c1ccccc1)(c1cccc(F)c1)c1cccc(F)c1 [Compound 9] | metabolised at 2 h, 5 µM [2]: 97%
1300 nM | 59% | 12 nM | NC(=O)C(c1ccc(F)cc1)(c1cccc(F)c1)c1cccc(F)c1 [Compound 10] | Selectivity (IKs vs. Gardos) ([5]; ratio of IC50 towards IKs vs. IC50 towards the Gardos channel): 110
1300 nM | 78% | 5 nM | NC(=O)[C@@](c1ccccc1)(c1ccc(F)cc1)c1ccccc1F [Compound 11] | increase in potency (Gardos) of 11 over 9 [4]: 600%
1800 nM | 44% | 5 nM | NC(=O)[C@](c1ccccc1)(c1ccc(F)cc1)c1ccccc1F [Compound 12] | improvement in potency (Gardos) of 12 over 8 [4]: ~700%; increase in potency (Gardos) over clotrimazole [4]: 2000%; improvement in potency (Gardos) over non-fluorinated triphenylacetamide 20 [4]: 1000%
1100 nM | 53% | – | NC(=O)C(c1ccc(F)cc1)(c1ccc(F)cc1)c1ccc(F)cc1 [Compound 13] | –
1900 nM | 57% | – | NC(=O)C(c1ccc(F)cc1)(c1ccc(F)cc1)c1cccc(F)c1 [Compound 16, bis(4-fluorophenyl)-3-fluorophenylacetamide] | –
4000 nM | 18% | – | NC(=O)C(c1cccc(F)c1)(c1cccc(F)c1)c1cccc(F)c1 [Compound 17] | metabolised at 2 h, 5 µM [2]: 82%

Further lines, the molecule ahead of its results:

Structure (SMILES) | IC50 [1] | remaining at 2 h, 5 µM [2] | IC50 [4, 11] | other results
NC(=O)C(c1ccccc1)(c1ccccc1)c1ccccc1F [Compound 2] | – | 80% | 15 nM | improvement in potency (Gardos) over non-fluorinated triphenylacetamide 20 [4]: 330%
NC(=O)C(c1ccccc1)(c1ccccc1)c1ccc(F)cc1 [Compound 4] | – | 80% | 13 nM | –
NC(=O)C(c1ccccc1)(c1ccccc1)c1c(F)c(F)c(F)c(F)c1F [Compound 6] | – | – | 37 nM | –
NC(=O)C(c1ccccc1)(c1ccccc1)c1ccc(F)c(F)c1 [Compound 7] | 1200 nM | 15% | – | metabolised at 2 h, 5 µM [2]: 85%
NC(=O)C(c1ccccc1)(c1ccccc1)c1ccc(F)cc1F [Compound 8] | 5700 nM | 39% | 34 nM | metabolised at 2 h, 5 µM [2]: 61%
NC(=O)C(c1ccccc1)(c1ccccc1F)c1ccccc1F [Compound 14] | – | 46% | – | –
NC(=O)C(c1ccc(F)cc1)(c1ccccc1F)c1ccccc1F [Compound 15] | – | 53% | – | –
NC(=O)C(c1ccccc1)(c1ccccc1)c1ccccc1Cl [Compound 18] | 7300 nM | 6% | – | elimination from the bloodstream ([3]; 1 mg/kg i.v., rat): fast; plasma level after oral dosing ([3]; 10 mg/kg p.o., 2 hour post-dose sample): no detectable levels; plasma level after oral dosing ([3]; 10 mg/kg p.o., between 0.25 and 1 hour after dosing): 31 to 65 ng/mL; oral bioavailability ([3]; 10 mg/kg p.o., rat): very poor oral bioavailability; IC50 [4]: 10 nM
Clc1ccccc1C(c1ccccc1)(c1ccccc1)n1ccnc1 [Compound 19, clotrimazole] | – | 4% | – | interaction with IKs [6]: interact with the slow component of the delayed rectifier potassium current in myocytes, IKs; clogging rate of a micropore filter [7]: additive reduction in the clogging rate of a micropore filter; effects of oral clotrimazole in patients with sickle cell disease [8]: induces inhibition of the Gardos channel and reduces erythrocyte ehydration; inhibition of Gardos channel / Ca2+-activated K+ flux [9]: specific, potent inhibitor of the Gardos channel of normal and sickle erythrocytes; also recorded: blocks Ca^2+ -activated K^+ flux and cell dehydration in sickle erythrocytes; effects of oral clotrimazole in SAD-1 mouse [10]: inhibition of the red cell Gardos channel, increased red cell K^+ content, a decreased mean corpuscular hemoglobin concentration (MCHC) and decreased cell density
NC(=O)C(c1ccccc1)(c1ccccc1)c1ccccc1 [Compound 20, reference compound] | 1100 nM | 13% | 50 nM | metabolised at 2 h, 5 µM [2]: 87%
OC(c1ccccc1)(c1ccccc1)c1ccccc1Cl [Compound 21, reference compound] | 2600 nM | 35% | – | IC50 [4]: 500 nM
CNC(=O)C(c1ccccc1)(c1ccccc1)c1ccccc1 [Compound 22, reference compound] | 2600 nM | 8% | 100 nM | –
Clc1ccc(CCC(Cn2ccnc2)Sc2c(Cl)cccc2Cl)cc1 (stereo not shown) [butoconazole] | – | – | – | sickle cell dehydration [9]: effective at reducing sickle cell dehydration; inhibition of Gardos channel / Ca2+-activated K+ flux [9]: inhibit the Gardos channel in vitro
Clc1ccc(COC(Cn2ccnc2)c2ccc(Cl)cc2Cl)cc1 (stereo not shown) [econazole] | – | – | – | sickle cell dehydration [9]: effective at reducing sickle cell dehydration; inhibition of Gardos channel / Ca2+-activated K+ flux [9]: inhibit the Gardos channel in vitro
Clc1ccc(COC(Cn2ccnc2)c2ccc(Cl)cc2Cl)c(Cl)c1 (stereo not shown) [miconazole] | – | – | – | sickle cell dehydration [9]: effective at reducing sickle cell dehydration; inhibition of Gardos channel / Ca2+-activated K+ flux [9]: inhibit the Gardos channel in vitro
